Data from ChEMBL document CHEMBL4261647, “Synthesis, DNA and protein interactions and human topoisomerase inhibition of novel Spiroacridine derivatives” (Bioorg Med Chem, 2018).

Key:
[1] = molecular target: DNA topoisomerase 2-alpha (Homo sapiens) (UniProt P11388); experiment: Inhibition of recombinant human topoisomerase 2alpha assessed as decrease in relaxation of supercoiled pUC19 DNA at 100 uM after 30 mins by ethidium bromide staining based agarose gel electrophoresis relative to control
[2] = test system: Calf thymus DNA; experiment: Binding affinity to calf thymus DNA by UV-vis absorption spectral analysis; assay type: nucleic-acid assay; conditions: Bos taurus
[3] = molecular target: T1, Albumin (Bos taurus, UniProt P02769); experiment: Binding affinity to bovine serum albumin assessed as Stern-Volmer quenching constant by fluorescence spectroscopic analysis; assay type: ADME; conditions: cattle, isolated protein
T1 sequence (P02769 whole entry): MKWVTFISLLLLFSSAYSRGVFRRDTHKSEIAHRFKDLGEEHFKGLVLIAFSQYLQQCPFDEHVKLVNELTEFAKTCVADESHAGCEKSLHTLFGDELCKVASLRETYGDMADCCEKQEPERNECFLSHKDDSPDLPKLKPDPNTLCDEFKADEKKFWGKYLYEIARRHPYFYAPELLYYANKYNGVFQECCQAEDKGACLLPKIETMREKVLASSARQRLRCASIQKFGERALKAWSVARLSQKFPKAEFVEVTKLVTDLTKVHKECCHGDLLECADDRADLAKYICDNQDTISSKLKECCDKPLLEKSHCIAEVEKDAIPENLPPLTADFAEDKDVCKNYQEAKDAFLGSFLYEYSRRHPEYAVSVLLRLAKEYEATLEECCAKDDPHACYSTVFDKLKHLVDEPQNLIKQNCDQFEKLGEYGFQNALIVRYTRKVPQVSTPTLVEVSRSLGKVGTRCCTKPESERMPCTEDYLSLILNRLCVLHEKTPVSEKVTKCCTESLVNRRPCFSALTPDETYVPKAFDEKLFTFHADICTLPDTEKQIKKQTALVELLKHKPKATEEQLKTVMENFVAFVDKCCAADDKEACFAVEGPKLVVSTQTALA

[4] = molecular target: T1, Albumin; experiment: Binding affinity to bovine serum albumin assessed as decrease in protein fluorescence intensity up to 10 uM by fluorescence spectroscopic analysis; assay type: ADME; parameters: scale not given: the % may be the effect or the level left; conditions: cattle, isolated protein
[5] = test system: Calf thymus DNA; experiment: Binding affinity to calf thymus DNA assessed as hypochromic effect up to 10 uM by UV-vis absorption spectral analysis; assay type: nucleic-acid assay; conditions: Bos taurus
[6] = test system: Calf thymus DNA; experiment: Binding affinity to calf thymus DNA assessed as hyperchromic effect up to 10 uM by UV-vis absorption spectral analysis; assay type: nucleic-acid assay; conditions: Bos taurus

Chain of DNA topoisomerase 2-alpha (Homo sapiens) (P11388 whole entry): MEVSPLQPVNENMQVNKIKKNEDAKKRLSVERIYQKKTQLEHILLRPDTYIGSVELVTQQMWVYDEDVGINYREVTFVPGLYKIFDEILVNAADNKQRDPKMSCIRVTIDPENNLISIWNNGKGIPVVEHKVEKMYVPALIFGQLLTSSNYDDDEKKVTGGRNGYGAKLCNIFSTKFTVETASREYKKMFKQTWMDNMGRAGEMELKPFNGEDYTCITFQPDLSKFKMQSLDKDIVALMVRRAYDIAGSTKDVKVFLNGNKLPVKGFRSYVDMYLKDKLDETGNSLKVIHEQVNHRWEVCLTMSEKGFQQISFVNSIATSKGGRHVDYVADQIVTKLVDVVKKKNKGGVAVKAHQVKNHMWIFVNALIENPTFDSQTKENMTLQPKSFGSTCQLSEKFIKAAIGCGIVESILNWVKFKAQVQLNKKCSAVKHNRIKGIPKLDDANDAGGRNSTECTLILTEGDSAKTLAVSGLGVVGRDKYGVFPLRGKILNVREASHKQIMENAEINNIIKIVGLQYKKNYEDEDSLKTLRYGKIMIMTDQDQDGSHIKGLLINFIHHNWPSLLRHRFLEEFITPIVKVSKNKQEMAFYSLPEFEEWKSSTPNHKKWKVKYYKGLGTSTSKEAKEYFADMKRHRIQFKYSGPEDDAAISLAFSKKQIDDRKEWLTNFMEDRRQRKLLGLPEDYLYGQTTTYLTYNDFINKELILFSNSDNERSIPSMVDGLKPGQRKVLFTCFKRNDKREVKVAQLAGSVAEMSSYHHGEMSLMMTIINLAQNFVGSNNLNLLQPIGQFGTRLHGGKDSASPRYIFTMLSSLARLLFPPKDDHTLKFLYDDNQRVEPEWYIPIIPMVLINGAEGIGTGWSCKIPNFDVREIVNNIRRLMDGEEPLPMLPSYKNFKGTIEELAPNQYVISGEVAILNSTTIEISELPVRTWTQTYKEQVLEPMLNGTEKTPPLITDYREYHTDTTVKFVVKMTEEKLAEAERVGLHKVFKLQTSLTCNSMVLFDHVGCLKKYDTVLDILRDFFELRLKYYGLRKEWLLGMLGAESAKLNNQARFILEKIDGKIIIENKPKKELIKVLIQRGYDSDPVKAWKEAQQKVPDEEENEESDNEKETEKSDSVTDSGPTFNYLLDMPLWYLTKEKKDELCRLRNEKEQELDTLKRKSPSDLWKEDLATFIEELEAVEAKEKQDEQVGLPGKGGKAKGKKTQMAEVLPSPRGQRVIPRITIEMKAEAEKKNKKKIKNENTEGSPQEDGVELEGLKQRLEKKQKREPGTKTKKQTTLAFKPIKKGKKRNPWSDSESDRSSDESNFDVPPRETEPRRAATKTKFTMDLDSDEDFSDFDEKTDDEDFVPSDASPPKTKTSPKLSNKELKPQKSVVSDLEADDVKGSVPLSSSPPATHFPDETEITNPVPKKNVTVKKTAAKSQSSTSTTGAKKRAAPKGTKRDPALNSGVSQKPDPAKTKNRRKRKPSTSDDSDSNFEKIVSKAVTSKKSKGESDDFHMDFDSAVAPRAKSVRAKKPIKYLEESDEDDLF

inhibition [1] [%] | Kb [2] | KSV [3] [×10⁴ /M] | Activity [4] [%] | Activity [5] [%] | Activity [6] [%] | SMILES
88.1 |  |  |  |  |  | COc1ccc(/C=N/N2C(=O)C(C#N)=CC23c2ccccc2Nc2ccccc23)cc1
84.3 | 7.6 ×10⁵ /M | 3.4 | 60.3 | 44.3 |  | N#CC1=CC2(c3ccccc3Nc3ccccc32)N(/N=C/c2ccc(Cl)cc2)C1=O
9.78 |  |  |  |  |  | N#CC1=CC2(c3ccccc3Nc3ccccc32)N(/N=C/c2ccccc2)C1=O
1.64 | 3.7 ×10⁵ /M | 2.3 | 51.46 | 8.06 |  | N#CC1=CC2(c3ccccc3Nc3ccccc32)N(/N=C/c2ccccc2[N+](=O)[O-])C1=O
15.9 | 1.6 ×10⁵ /M | 2.1 | 45.77 | 30 |  | N#CC1=CC2(c3ccccc3Nc3ccccc32)N(/N=C/c2c(Cl)cccc2Cl)C1=O
61.7 | 8.2 ×10⁵ /M | 2 | 48.01 |  | 65.3 | N#CC1=CC2(c3ccccc3Nc3ccccc32)N(/N=C/c2ccc(Cl)cc2Cl)C1=O
43.7 | 4.8 ×10⁶ /M | 3.1 | 71.74 | 13.5 |  | N#CC1=CC2(c3ccccc3Nc3ccccc32)N(/N=C/c2ccc([N+](=O)[O-])cc2)C1=O
70.7 | 1.5 ×10⁵ /M | 2.3 | 55.11 |  | 45.8 | N#CC1=CC2(c3ccccc3Nc3ccccc32)N(/N=C/c2ccc(F)cc2)C1=O
20.6 | 2.6 ×10⁵ /M | 2.3 | 58.57 | 14.4 |  | CCOc1cc(/C=N/N2C(=O)C(C#N)=CC23c2ccccc2Nc2ccccc23)ccc1O
1.64 | 1.1 ×10⁸ /M | 2.7 | 54.95 | 7.14 |  | CN(C)c1ccc(/C=N/N2C(=O)C(C#N)=CC23c2ccccc2Nc2ccccc23)cc1
1.64 | 6.7 ×10⁵ /M | 1.9 | 42.53 | 100 |  | COc1ccc(Br)cc1/C=N/N1C(=O)C(C#N)=CC12c1ccccc1Nc1ccccc12
